Measured values published in publication PMC6295231 (Clinical cancer research : an official journal of the …, 2018).

Legend:
[1] = test system: ELK1-dependent promoter activation by AR; assay: primary screening assay; assay type: cell-based; conditions: for IC50 for inhibition of ELK1-dependent promoter activation by AR: primary screening assay, compound dose range of 1-10μM; for IC50: Homo sapiens, HeLa, read-out: IC50 for inhibition of ELK1-dependent promoter activation by AR
[2] = test system: PDX-PR011 tumor xenograft; assay: PDX-PR011 patient-derived tumor xenograft in male SCID mice; conditions: for tumor growth, PDX-PR011 xenograft: treatment from Day 1 after implantation
[3] = test system: VCaP cells; assay: MTT growth assay, VCaP; conditions: androgen-dependent cells
[4] = test system: LNCaP cells; assay: MTT growth assay, LNCaP; conditions: androgen-dependent cells; up to 20 uM
[5] = test system: 22Rv1 cells; assay: MTT growth assay, 22Rv1; conditions: androgen-independent cells; up to 20 uM
[6] = target: ELK1 (Homo sapiens) (UniProt P19419); conditions: cited from earlier work
Sequence of ELK1 (Homo sapiens) (P19419 whole entry): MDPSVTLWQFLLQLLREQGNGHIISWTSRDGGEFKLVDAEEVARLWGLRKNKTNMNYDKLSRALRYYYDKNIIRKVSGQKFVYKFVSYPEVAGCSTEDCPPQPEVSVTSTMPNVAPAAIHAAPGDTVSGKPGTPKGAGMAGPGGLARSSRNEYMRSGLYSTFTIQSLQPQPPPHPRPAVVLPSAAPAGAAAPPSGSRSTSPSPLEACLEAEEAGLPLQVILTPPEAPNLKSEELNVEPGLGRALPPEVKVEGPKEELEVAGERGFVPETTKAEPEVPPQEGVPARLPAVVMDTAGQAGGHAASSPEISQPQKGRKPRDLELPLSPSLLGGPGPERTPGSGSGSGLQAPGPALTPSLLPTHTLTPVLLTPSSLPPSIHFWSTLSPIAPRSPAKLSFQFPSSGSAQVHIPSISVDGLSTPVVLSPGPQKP

[7] = target: T1, purified human AR (Homo sapiens, UniProt P10275); assay: surface plasmon resonance, binding to immobilized AR; conditions: for Kd: dissociation constant (Kd) for binding to AR, SPR, AR immobilized
T1 sequence (P10275 1-920): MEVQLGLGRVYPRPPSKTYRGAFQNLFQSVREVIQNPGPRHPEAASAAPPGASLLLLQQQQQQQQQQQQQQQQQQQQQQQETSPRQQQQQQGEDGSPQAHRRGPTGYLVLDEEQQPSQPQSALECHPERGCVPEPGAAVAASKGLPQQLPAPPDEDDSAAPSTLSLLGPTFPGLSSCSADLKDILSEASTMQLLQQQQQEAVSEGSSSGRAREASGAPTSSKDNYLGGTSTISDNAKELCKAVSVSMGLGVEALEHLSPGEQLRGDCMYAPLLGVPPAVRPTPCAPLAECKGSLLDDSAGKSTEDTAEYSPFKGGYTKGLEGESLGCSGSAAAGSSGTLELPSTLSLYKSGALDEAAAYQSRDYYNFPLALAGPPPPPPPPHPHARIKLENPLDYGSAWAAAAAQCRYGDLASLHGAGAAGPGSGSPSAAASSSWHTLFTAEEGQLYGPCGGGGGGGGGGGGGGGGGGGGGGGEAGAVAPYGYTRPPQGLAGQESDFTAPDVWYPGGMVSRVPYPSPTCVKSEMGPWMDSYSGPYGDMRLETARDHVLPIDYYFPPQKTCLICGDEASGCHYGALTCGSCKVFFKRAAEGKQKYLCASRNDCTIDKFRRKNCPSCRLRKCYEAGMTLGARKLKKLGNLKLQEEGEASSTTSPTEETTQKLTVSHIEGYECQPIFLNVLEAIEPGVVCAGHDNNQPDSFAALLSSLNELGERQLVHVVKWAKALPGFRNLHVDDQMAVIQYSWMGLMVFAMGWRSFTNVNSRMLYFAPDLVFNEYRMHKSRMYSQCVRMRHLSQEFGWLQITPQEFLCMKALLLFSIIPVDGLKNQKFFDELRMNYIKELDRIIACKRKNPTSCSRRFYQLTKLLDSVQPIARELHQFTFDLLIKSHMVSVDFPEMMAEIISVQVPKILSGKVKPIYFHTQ

[8] = easily oxidized; ref [33], [34]; cited from earlier work
[9] = test system: ARE-dependent promoter activation by AR; assay: counter screening assay; assay type: cell-based; conditions: words
[10] = target: ELK1 (Homo sapiens, UniProt P19419); assay: surface plasmon resonance, binding to immobilized ELK1; conditions: SPR
Sequence of ELK1 (P19419 whole entry): as the sequence (P19419 whole entry) above

[11] = test system: AR-V7; assay: hormone-independent promoter activation by AR-V7; assay type: cell-based; conditions: relatively higher concentrations required
[12] = test system: DU145 (prostate cancer cells); assay: growth of AR-negative cells, DU145; assay type: cell-based
[13] = test system: AR or AR-V7 protein level; assay: protein level of AR / AR-V7 in PC/CRPC cell lines; assay type: cell-based
[14] = target: binding of AR to ELK1 (Homo sapiens, UniProt P10275); assay: SPR competition: binding of AR; conditions: AR 200 nM
[15] = test system: HeLa (cervical cancer cells); assay: growth of AR-negative cells, HeLa; assay type: cell-based
[16] = test system: HEK293 (adenovirus transformed kidney fibroblasts); assay: growth of AR-negative cells, HEK293; assay type: cell-based
[17] = in vivo; conditions: SCID, mouse
[18] = test system: AR target genes in 22Rv1 cells; assay: real time RT-PCR of AR target genes in 22Rv1 cells; assay type: cell-based; conditions: 10 µM, 72h
[19] = mouse, in vivo
[20] = plasma/serum levels and metabolites of KCI807 by LC-MS/MS; conditions: mice, 250 mg/kg IP alternate days, 6h after last injection
[21] = test system: H1650 (lung adenocarcinoma cells); assay: growth of AR-negative cells, H1650; assay type: cell-based
[22] = target: association of AR with ELK1 (Homo sapiens, UniProt P10275); assay: BRET assay of association of ELK1 with AR in HEK293T cells; assay type: cell-based; conditions: pre-incubation
[23] = test system: 22Rv1 CRPC cells; assay: colony formation assay, 22Rv1
[24] = test system: AR recruitment to chromatin in LNCaP cells; assay: chromatin immunoprecipitation; assay type: cell-based; conditions: R1881 10nM + KCI807 20uM, 2h
[25] = test system: activation of ELK1 by MEK/ERK; assay type: cell-based; conditions: HeLa cells co-transfected

In the case of `O=c1cc(-c2ccc(O)c(O)c2)oc2cc(O)ccc12` [7,3’,4’-Trihydroxyflavone], the “IC50 for inhibition of ELK1-dependent promoter activation by AR” value (“IC50 for inhibition” for short) [1] is reported as “No effect”.

`COc1ccc(-c2cc(=O)c3c(O)cc(O)cc3o2)cc1O` [5,7,3’-Trihydroxy-4’-methoxyflavone] gave an IC50 [1] of 1.37 µM.

In the case of `O=c1cc(-c2cccc(O)c2)oc2cc(O)ccc12` [7,3’-Dihydroxyflavone], the “IC50 for inhibition” value [1] is reported as “No effect”.

In the case of `CNC(=O)c1ccc(N2C(=S)N(c3ccc(C#N)c(C(F)(F)F)c3)C(=O)C2(C)C)cc1F` [enzalutamide, reference compound], the “tumor growth, PDX-PR011 xenograft” value [2] is reported as “insensitive”, the “cell growth inhibition, MTT, VCaP” value [3] is reported as “most sensitive” and the “cell growth inhibition, MTT, LNCaP” value [4] is reported as “only showed partial effects”. For the same compound, the “cell growth inhibition, MTT, 22Rv1” value [5] was “only showed partial effects”.

In the case of AR (from UniProt P10275), the Kd [6] is given as 0.02 µM.

With `O=c1cc(-c2cccc(O)c2)oc2ccccc12` [3’-Hydroxyflavone] the “IC50 for inhibition” value [1] was “No effect” and the Kd [7] was 1.43 µM.

With `O=c1cc(-c2ccc(O)cc2)oc2cccc(O)c12` [5,4’-Dihydroxyflavone] the IC50 [1] was 5.48 µM.

Work on `COc1ccc(-c2cc(=O)c3c(O)c(OC)c(OC)cc3o2)cc1O` [5,3’-Dihydroxy-6,7,4’-trimethoxyflavone] yielded an IC50 [1] of 4.17 µM.

With `O=c1cc(-c2ccc(O)cc2)oc2cc(O)ccc12` [7,4’-Dihydroxyflavone] the “IC50 for inhibition” value [1] was “No effect”.

In the case of `O=c1cc(-c2ccc(O)c(O)c2)oc2ccccc12` [3’.4’-Dihydroxyflavone], the “IC50 for inhibition” value [1] is reported as “No effect”.

With `O=c1cc(-c2ccc(O)c(O)c2)oc2cccc(O)c12` [5,3’,4’-Trihydroxyflavone] the IC50 [1] was 1.01 µM.

For `COc1cc(-c2cc(=O)c3c(O)cc(O)cc3o2)ccc1O` [5,7,4’-Trihydroxy-3’-methoxyflavone], the “IC50 for inhibition” value [1] was “No effect”.

In the case of `COc1c(-c2ccc(O)c(O)c2)oc2cc(O)cc(O)c2c1=O` [5,7,3’,4’-Tetrahydroxy-3-methoxyflavone], the “IC50 for inhibition” value [1] is reported as “No effect”.

In the case of `O=c1cc(-c2ccccc2)oc2cc(O)cc(O)c12` [5.7-Dihydroxyflavone], the “IC50 for inhibition” value [1] is reported as “No effect”.

For `O=c1cc(-c2ccc(O)c(O)c2)oc2cc(O)cc(O)c12` [Hit 1, 5,7,3’,4’-Tetrahydroxyflavone], the stability in vitro [8] is given as “highly unstable”, the “effect on ARE-dependent promoter activation by AR (counter screen)” value [9] is given as “virtual absence of an effect” and the IC50 [1] is given as 1.01 µM. The inhibition at 10 µM ([1]; Mus musculus, MIN6, 6 h, read-out: inhibition in the primary screen) was 80 to 100%.

In the case of `O=c1cc(-c2ccccc2)oc2cccc(O)c12` [5-Hydroxyflavone], the IC50 [1] is reported as > 10 µM.

In the case of `O=c1cc(-c2cccc(O)c2)oc2cccc(O)c12` [KCI807, 5,3’-Dihydroxyflavone], the “binding to immobilized ELK1” value [10] is reported as “did not bind”, the “hormone-independent promoter activation by splice variant AR-V7” value [11] is reported as “inhibited” and the “growth of DU145 cells” value [12] is reported as “did not appreciably affect”. For the same compound, the “expression of AR or AR-V7 proteins” value [13] was “does not affect”, the “symptoms during PDX-PR011 study” value ([2]; mouse, in vivo) was “asymptomatic” and the “weight loss during PDX-PR011 study” value ([2]; mouse, in vivo) was “did not show appreciable weight loss”. The “tumor growth, PDX-PR011 xenograft” value [2] was “significantly inhibited”, the “blocking of binding of purified AR (analyte) to immobilized ELK1” value [14] was “blocked binding” and the “growth of HeLa cells” value [15] was “did not appreciably affect”. For the same compound, the “growth of HEK293 cells” value [16] was “did not appreciably affect”, the half-life [17] was 6 h and the “expression of AR target genes (mRNA)” value [18] was “decreased expression of only the genes known to be supported synergistically by ELK1 and AR”. The IC50 [1] was 0.53 µM, the “immediate and peri-acute post-injection toxicity (dose determination)” value [19] was “asymptomatic post all doses given” and the “plasma level of unmetabolized compound (median), Day 11” value [20] was 0.387 µM. For the same compound, the “plasma level of unmetabolized compound (median), Day 19” value [20] was 0.07 µM, the “growth of H1650 cells” value [21] was “did not appreciably affect” and the “cell growth inhibition, MTT, VCaP” value [3] was “most sensitive”. The “dissociation constant for AR relative to that for binding of ELK1 to AR” value ([7]; ELK1-AR value ref [25]) was ~ 3 times, the Kd [7] was 0.0692 µM and the “BRET coupling between ELK1 and AR” value [22] was “inhibited”. For the same compound, the “cell growth inhibition, MTT, LNCaP” value [4] was “completely inhibited cell growth”, the “concentration beyond which colony growth was virtually completely inhibited” value [23] was > 125 nM and the “cell growth inhibition, MTT, 22Rv1” value [5] was “completely inhibited cell growth”. For the same compound, the “AR recruitment at canonical ARE enhancer sites (KLK3, TMPRSS2)” value [24] was “did not impede”, the “association of AR with chromatin sites at which ELK1 recruits AR” value [24] was “prevented association” and the “inhibition of luciferase reporter activation by MEK1 (caMEK1, Gal4-ELK1)” value [25] was “did not inhibit”.

In the case of `COc1cc(OC)c2c(=O)cc(-c3ccc(OC)c(OC)c3)oc2c1` [5,7,3’,4’-Tetramethoxyflavone], the “IC50 for inhibition” value [1] is reported as “No effect”.

In the case of `CC(=O)Nc1cccc(-n2c(=O)n(C3CC3)c(=O)c3c(Nc4ccc(I)cc4F)n(C)c(=O)c(C)c32)c1` [trametinib, reference compound], the “inhibition of luciferase reporter activation by MEK1 (caMEK1, Gal4-ELK1)” value [25] is reported as “completely inhibited”.
